Assay results as given in US20230218544A1, “TREATMENT METHODS AND FORMULATIONS” (Curtin University, priority 2020, published 2023).
Entries after “also recorded” stand apart in the source; their conditions may differ.

Assays:
HEI-OC1 cells [1] = assay: Cisplatin cytotoxicity in inner ear sensory cells; format: cell-based, mouse; conditions: concentration used in subsequent experiments to ensure IC 50; 24 hours; read-out: IC 50 on cell viability
Experimental: House Ear Institute-Organ of Corti 1 (HEI-OC1) cells provided by Y J. Seo (Yonsei University, wonju, Korea) and F. Kalinec, (House Ear Institute, (Los Angeles, Calif., USA) were cultured in high-glucose Dulbecco's modified Eagle's medium (DMEM; Lonza, USA) supplemented with 10% Fetal bovine serum (FBS; Gibco BRL, USA) and 50 U/ml gamma-interferon (PEPRO TECH, INC. USA) without any antibiotics in a permissive condition (33° C., 10% CO2). For the non-permissive condition, cultured cells were cultured in the permissive condition for a certain period (Kalinec G, Thein P, Park C, Kalinec F. HEI-OC1 cells as a model for investigating drug cytotoxicity. […] Growth curves were performed to identify the growth patterns of cells in each condition. Cells cultured at 33° C., in a 10% CO2 atmosphere condition were recorded on day 0 after cell counting before seeding. Cells were recovered stripped daily from the cell dish and enumerated. This was done then, cell counted, confirmed for up to 14 days. Following the shift, cells were enumerated daily for 14 days. As explained above, HEI-OC1 cells were cultured in permissive conditions (33° C., 10% CO2) until day 5 and then transferred to the non-permissive condition (39° C., 5% CO2).
High-glucose DMEM supplemented with 0.5% FBS was used. […]

HEI-OC1 cells [2] = assay: Cell viability with cisplatin and probucol (oto-protection); format: cell-based, mouse
Experimental: House Ear Institute-Organ of Corti 1 (HEI-OC1) cells provided by Y J. Seo (Yonsei University, wonju, Korea) and F. Kalinec, (House Ear Institute, (Los Angeles, Calif., USA) were cultured in high-glucose Dulbecco's modified Eagle's medium (DMEM; Lonza, USA) supplemented with 10% Fetal bovine serum (FBS; Gibco BRL, USA) and 50 U/ml gamma-interferon (PEPRO TECH, INC. USA) without any antibiotics in a permissive condition (33° C., 10% CO2). For the non-permissive condition, cultured cells were cultured in the permissive condition for a certain period (Kalinec G, Thein P, Park C, Kalinec F. HEI-OC1 cells as a model for investigating drug cytotoxicity. Hearing Res. 2016; 335:105-117. doi:10.1016/j.heares.2016.02.019). Growth curves were performed to identify the growth patterns of cells in each condition. Cells cultured at 33° C., in a 10% CO2 atmosphere condition were recorded on day 0 after cell counting before seeding. Cells were recovered stripped daily from the cell dish and enumerated. This was done then, cell counted, confirmed for up to 14 days. Following the shift, cells were enumerated daily for 14 days. As explained above, HEI-OC1 cells were cultured in permissive conditions (33° C., 10% CO2) until day 5 and then transferred to the non-permissive condition (39° C., 5% CO2).
Cisplatin was from Sigma Chemical Co. (St. Louis, Mo., USA). […]

[3] = system: guinea pig model of ototoxicity; assay: Experimental Example 3: round window CAP thresholds after kanamycin and furosemide ototoxicity; format: in vivo, guinea pigs (Cavia porcellus)
From the text: The animal was then removed from isoflurane, and allowed to recover slowly under close observation. […] Animals were then deeply anaesthetized, and euthanized via cardiac fixation for temporal bones harvesting.

[4] = system: guinea pig model of ototoxicity; assay: Experimental Example 4: CAP thresholds in ototoxicity animal model with kanamycin and furosemide; format: in vivo, guinea pigs (Cavia porcellus); conditions: for difference of CAP between ototoxicity and ototoxicity with probucol sides: day 14 post-treatment
Experimental: Experiments were performed on 9 adult guinea pigs (Cavia porcellus) of either sex with body weights between 250 and 350 g. All experimental procedures were approved by The University of Curtin Animal Ethics Committee.
For all experiments, each animal first underwent a recovery surgery at day ‘zero’ to inject.
For the recovery surgery, each animal was given a 0.05 ml subcutaneous injection of Temgesic (Buprenorpherine; Reckitt Benckiser, Auckland NZ) and 0.1 ml of Atrosine (0.6 mg/ml atropine sulphate; Apex Laboratories, NSW, Australia) before being anesthetized using isoflurane (2-5%). The temperature was maintained using an electric heating pad, and lignocaine was used as a local anesthetic. While using aseptic techniques, animals were mounted on a custom ear-bar setup, and the left bulla surgically opened via a dorsal approach providing a view of the left round window, using aseptic techniques. Before the drug administrations, the AgCl ball-electrode (reference in the neck) was placed on the round window for recording compound action potential (CAP) responses (Brown D J, Chihara Y, Curthoys I S, Wang Y, Bos M. Changes in cochlear function during acute endolymphatic hydrops development in guinea pigs. Hearing Res. 2013; 296 (J. Neurophysiol. 101 2009):96-106. doi:10.1016/j.heares.2012.12.004; Brown D J, Pastras C J, Curthoys I S, Southwell C S, Roon L V. Endolymph movement visualized with light sheet fluorescence microscopy in an acute hydrops model. Hearing Res. 2016; 339 (PloS one 7 2012):112-124. doi:10.1016/j.heares.2016.06.007; and Brown D J, Sokolic L, Fung A, Pastras C J. Response of the Inner Ear to Lipopolysaccharide Introduced Directly into Scala Media. Hearing Res. 2018; 370 (Otol Neurotol 32 2011):105-112. doi:10.1016/j.heares.2018.10.007).
The bulla opening was resealed with dental cement before the overlying skin was sutured. The animal was then removed from isoflurane, and allowed to recover slowly under close observation. During recovery, the animal was given a subsequent 0.05 ml i.p. dose of Temgesic, along with an oral delivery of 1 ml Ibuprofen (40 mg/ml; Reckitt Benckiser Pty Ltd, Australia). Animals were then allowed to recover for 14 days (±3) days. For following CAP threshold measurements after 14 days, the bulla was re-opened with same procedures. Thereafter, animals were re-anaesthetized and mounted on the ear-bars, for a repeated measure of CAP thresholds described previously. Animals were then deeply anaesthetized, and euthanized via cardiac fixation for temporal bones harvesting.
The standard deviation of CAP thresholds was measured at day 0.

[5] = system: spiral ganglion neurons (SGNs); assay: Light sheet microscopy quantification of spiral ganglion neuron (SGN) density in cochlea; format: in vivo, guinea pig
Experimental: Harvested temporal bones were immersed in 4% para-formaldehyde overnight at 4° C., before being decalcified for 14-18 days in 10% EDTA. They were then rinsed with Sorenson's buffer, dehydrated in a series of 50, 75, 90 and 100% ethanol (8-12 h each step), and immersed in Spalteholz solution for 24 h, to render the sample optically transparent. Samples were then imaged using a custom light-sheet fluorescence microscope (LSFM), based on the setup described by Santi et al. (2009) (Santi P A. Light Sheet Fluorescence Microscopy. J Histochem Cytochem. 2010; 59(2):129-138. doi:10.1369/0022155410394857), where ‘virtual slices’ of the inner ear were imaged at […] steps in the axial plane, detailed in Brown et al. (2016) (Brown D J, Pastras C J, Curthoys I S, Southwell C S, Roon L V. Endolymph movement visualized with light sheet fluorescence microscopy in an acute hydrops model. Hearing Res. 2016; 339 (PloS one 7 2012):112-124. doi:10.1016/j.heares.2016.06.007), providing a ‘z-stack’ of between 300 and 1000 virtual slice images. LSFM images were analyzed by a blinded investigator, for later comparison to the functional data and treatment. LSFM z-stacks were analyzed using ImageJ software, with 3D volumes segmented for volume analysis using the Segmentation3D plugin. TIFF files collected from the light sheet microscope were reconstructed into representative 3D images. […]

Structure (SMILES): N.N.[Cl][Pt][Cl] [cisplatin]
- IC50 (HEI-OC1 cells [1]): ~20 µM

Structure (SMILES): CC(C)(Sc1cc(C(C)(C)C)c(O)c(C(C)(C)C)c1)Sc1cc(C(C)(C)C)c(O)c(C(C)(C)C)c1 [probucol, 2,6-ditert-butyl-4-[2-(3,5-ditert-butyl-4-hydroxyphenyl)sulfanylpropan-2-ylsulfanyl]phenol]
- cell survival compared with control (HEI-OC1 cells [2]; probucol 20 μM and 50 μM with cisplatin, 24 h): promoted the cell survival
- cellular mitogenesis compared with control (HEI-OC1 cells [2]; probucol 100 μM, attributed to high concentration of vehicle DMSO): significant decrease in cellular mitogenesis
- mean difference between left and right CAP thresholds ([3]; 2 kHz, insignificant): 3 dB
- hearing loss (CAP thresholds compared to baseline), probucol-treated cochleae ([3]; about 100 μL probucol-gel on round window, after kanamycin and furosemide, significant at all frequencies except 6 and 10 kHz): 11-40 dB
- average CAP threshold compared to non-probucol treated cochlea ([3]; at 6 kHz and 10 kHz): significantly lower
- difference of CAP between ototoxicity and ototoxicity with probucol sides ([4]; 6 kHz, probucol injected into bulla around RWM): 23.4±9.49 dB
- difference of CAP between ototoxicity and ototoxicity with probucol sides ([4]; 10 kHz): 21.89 ± 7.72 dB
- difference of CAP between ototoxicity and ototoxicity with probucol sides ([4]; 14 kHz): 16.56±4.15 dB
- hearing protection in the ototoxicity guinea pig model ([4]; guinea pig, in vivo): hearing protection effect
- thresholds of hearing (CAP) versus control side ([4]; significant only at 6 and 10 kHz): better thresholds of hearing
- density of SGNs in the basal turn versus ototoxicity alone group ([5]; basal turn of cochlea, significant): significantly larger density; also recorded: kept not to be injured
- effect on hair cell damages by ototoxicity drugs ([5]; guinea pig, in vivo): protective effect
